Test results as given in patent US9113629B2, “4-amino-6-(4-substituted-phenyl)-picolinates and 6-amino-2-(4-substituted-phenyl)-pyrimidine-4-carboxylates and their use as herbicides” (DOW AGROSCIENCES LLC, priority 2013, dated 2015).
Like-named read-outs stand apart in the source and are kept apart here.

Assays:
[1] = test system: Key Broadleaf Weed and Crop Species; assay: Post-emergent Test II herbicidal activity (Table 5); format: in vivo; conditions: post-emergence, 336 h, 14 days after application; for pest or weed control at 70 g/ha: application rate 70 g ai/ha; for pest or weed control at 140 g/ha: application rate 140 g ai/ha
Method in brief: (§1)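 Spray rates: a highest rate plus ½×, ¼×, ⅛×, 1/16×, all delivered at 187 L/ha to plants at the first–second true leaf stage. Readout is a visual percent injury score at 14 d, where 100 means complete kill.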

[2] = test system: Key Grass and Sedge Weeds as well as Grass Crops; assay: Post-emergent Test II herbicidal activity (Table 6); format: in vivo; conditions: post-emergence, 336 h; for pest or weed control at 70 g/ha: 70 g ai/ha; for pest or weed control at 140 g/ha: 140 g ai/ha
Method in brief: as §1

[3] = ABUTH: velvetleaf (Abutilon theophrasti), read-out: Visual Growth Reduction (%) 14 Days After Application, ABUTH
[4] = AMARE: redroot pigweed (Amaranthus retroflexus), read-out: Visual Growth Reduction (%) 14 Days After Application, AMARE
[5] = BRSNN: oilseed-rape, canola (Brassica napus), read-out: Visual Growth Reduction (%) 14 Days After Application, BRSNN
[6] = CHEAL: lambsquarters (Chenopodium album), read-out: Visual Growth Reduction (%) 14 Days After Application, CHEAL
[7] = EPHHL: wild poinsettia (Euphorbia heterophylla), read-out: Visual Growth Reduction (%) 14 Days After Application, EPHHL
[8] = HELAN: sunflower (Helianthus annuus), read-out: Visual Growth Reduction (%) 14 Days After Application, HELAN
[9] = VIOTR: wild pansy (Viola tricolor), read-out: Visual Growth Reduction (%) 14 Days After Application, VIOTR
[10] = CYPES: yellow nutsedge (Cyperus esculentus), read-out: Visual Growth Reduction (%) 14 Days After Application, CYPES
[11] = DIGSA: crabgrass (Digitaria sanguinalis), read-out: Visual Growth Reduction (%) 14 Days After Application, DIGSA
[12] = ECHCG: barnyardgrass (Echinochloa crus-galli), read-out: Visual Growth Reduction (%) 14 Days After Application, ECHCG
[13] = ORYSA: rice (Oryza sativa), crop, read-out: Visual Growth Reduction (%) 14 Days After Application, ORYSA
[14] = SETFA: giant foxtail (Setaria faberi), read-out: Visual Growth Reduction (%) 14 Days After Application, SETFA
[15] = SORVU: grain sorghum (Sorghum vulgare), read-out: Visual Growth Reduction (%) 14 Days After Application, SORVU
[16] = TRZSS (wheat, Triticum aestivum), crop, read-out: Visual Growth Reduction (%) 14 Days After Application, TRZSS
[17] = ZEAMX: maize, corn (Zea mays), crop, read-out: Visual Growth Reduction (%) 14 Days After Application, ZEAMX

COC(=O)c1nc(-c2ccc(C(F)F)c(F)c2)cc(N)c1Cl [Compound 196]
pest or weed control at 70 g/ha [1, 3]: 95 to 100%
pest or weed control at 140 g/ha [1, 3]: 95 to 100%
pest or weed control at 70 g/ha [1, 4]: 95 to 100%
pest or weed control at 140 g/ha [1, 4]: 95 to 100%
pest or weed control at 70 g/ha [1, 5]: 30 to 44%
pest or weed control at 140 g/ha [1, 5]: 30 to 44%
pest or weed control at 70 g/ha [1, 6]: 95 to 100%
pest or weed control at 140 g/ha [1, 6]: 95 to 100%
pest or weed control at 70 g/ha [1, 7]: 95 to 100%
pest or weed control at 140 g/ha [1, 7]: 95 to 100%
pest or weed control at 70 g/ha [1, 8]: 95 to 100%
pest or weed control at 140 g/ha [1, 8]: 95 to 100%
pest or weed control at 70 g/ha [1, 9]: 0 to 29%
pest or weed control at 140 g/ha [1, 9]: 0 to 29%
pest or weed control at 70 g/ha [2, 10]: 85 to 94%
pest or weed control at 140 g/ha [2, 10]: 85 to 94%
pest or weed control at 70 g/ha [2, 11]: 45 to 59%
pest or weed control at 140 g/ha [2, 11]: 45 to 59%
pest or weed control at 70 g/ha [2, 12]: 95 to 100%
pest or weed control at 140 g/ha [2, 12]: 95 to 100%
pest or weed control at 70 g/ha [2, 13]: 0 to 29%
pest or weed control at 140 g/ha [2, 13]: 0 to 29%
pest or weed control at 70 g/ha [2, 14]: 0 to 29%
pest or weed control at 140 g/ha [2, 14]: 0 to 29%
pest or weed control at 70 g/ha [2, 15]: 75 to 84%
pest or weed control at 140 g/ha [2, 15]: 75 to 84%
pest or weed control at 70 g/ha [2, 16]: 0 to 29%
pest or weed control at 140 g/ha [2, 16]: 0 to 29%
pest or weed control at 70 g/ha [2, 17]: 0 to 29%
pest or weed control at 140 g/ha [2, 17]: 75 to 84%

N#Cc1ccc(-c2nc(C(=O)O)c(Cl)c(N)c2F)cc1 [Compound 39]
pest or weed control at 70 g/ha [1, 3]: 30 to 44%
pest or weed control at 140 g/ha [1, 3]: 60 to 74%
pest or weed control at 70 g/ha [1, 4]: 0 to 29%
pest or weed control at 140 g/ha [1, 4]: 0 to 29%
pest or weed control at 70 g/ha [1, 5]: 0 to 29%
pest or weed control at 140 g/ha [1, 5]: 30 to 44%
pest or weed control at 70 g/ha [1, 6]: 85 to 94%
pest or weed control at 140 g/ha [1, 6]: 95 to 100%
pest or weed control at 70 g/ha [1, 7]: 85 to 94%
pest or weed control at 140 g/ha [1, 7]: 95 to 100%
pest or weed control at 70 g/ha [1, 8]: 95 to 100%
pest or weed control at 140 g/ha [1, 8]: 95 to 100%
pest or weed control at 70 g/ha [1, 9]: 30 to 44%
pest or weed control at 140 g/ha [1, 9]: 30 to 44%
pest or weed control at 70 g/ha [2, 10]: 60 to 74%
pest or weed control at 140 g/ha [2, 10]: 75 to 84%
pest or weed control at 70 g/ha [2, 11]: 30 to 44%
pest or weed control at 140 g/ha [2, 11]: 45 to 59%
pest or weed control at 70 g/ha [2, 12]: 85 to 94%
pest or weed control at 140 g/ha [2, 12]: 85 to 94%
pest or weed control at 70 g/ha [2, 13]: 0 to 29%
pest or weed control at 140 g/ha [2, 13]: 0 to 29%
pest or weed control at 70 g/ha [2, 14]: 0 to 29%
pest or weed control at 140 g/ha [2, 14]: 30 to 44%
pest or weed control at 70 g/ha [2, 15]: 30 to 44%
pest or weed control at 140 g/ha [2, 15]: 60 to 74%
pest or weed control at 70 g/ha [2, 16]: 30 to 44%
pest or weed control at 140 g/ha [2, 16]: 45 to 59%
pest or weed control at 70 g/ha [2, 17]: 60 to 74%
pest or weed control at 140 g/ha [2, 17]: 60 to 74%

COC(=O)c1nc(-c2cccc(F)c2F)c(F)c(N)c1Cl [Compound 199]
pest or weed control at 70 g/ha [1, 3]: 95 to 100%
pest or weed control at 140 g/ha [1, 3]: 95 to 100%
pest or weed control at 70 g/ha [1, 4]: 95 to 100%
pest or weed control at 140 g/ha [1, 4]: 95 to 100%
pest or weed control at 70 g/ha [1, 5]: 85 to 94%
pest or weed control at 140 g/ha [1, 5]: 95 to 100%
pest or weed control at 70 g/ha [1, 6]: 85 to 94%
pest or weed control at 140 g/ha [1, 6]: 95 to 100%
pest or weed control at 70 g/ha [1, 7]: 60 to 74%
pest or weed control at 140 g/ha [1, 7]: 85 to 94%
pest or weed control at 70 g/ha [1, 8]: 75 to 84%
pest or weed control at 140 g/ha [1, 8]: 95 to 100%
pest or weed control at 70 g/ha [1, 9]: 0 to 29%
pest or weed control at 140 g/ha [1, 9]: 30 to 44%
pest or weed control at 70 g/ha [2, 10]: 0 to 29%
pest or weed control at 140 g/ha [2, 10]: 0 to 29%
pest or weed control at 70 g/ha [2, 11]: 0 to 29%
pest or weed control at 140 g/ha [2, 11]: 0 to 29%
pest or weed control at 70 g/ha [2, 12]: 0 to 29%
pest or weed control at 140 g/ha [2, 12]: 0 to 29%
pest or weed control at 70 g/ha [2, 13]: 0 to 29%
pest or weed control at 140 g/ha [2, 13]: 0 to 29%
pest or weed control at 70 g/ha [2, 14]: 0 to 29%
pest or weed control at 140 g/ha [2, 14]: 0 to 29%
pest or weed control at 70 g/ha [2, 15]: 0 to 29%
pest or weed control at 140 g/ha [2, 15]: 0 to 29%
pest or weed control at 70 g/ha [2, 16]: 0 to 29%
pest or weed control at 140 g/ha [2, 16]: 0 to 29%
pest or weed control at 70 g/ha [2, 17]: 0 to 29%
pest or weed control at 140 g/ha [2, 17]: 0 to 29%

COC(=O)c1nc(-c2ccc(OC(F)F)cc2)c(F)c(N)c1Cl [Compound 85]
pest or weed control at 70 g/ha [1, 3]: 95 to 100%
pest or weed control at 140 g/ha [1, 3]: 95 to 100%
pest or weed control at 70 g/ha [1, 4]: 95 to 100%
pest or weed control at 140 g/ha [1, 4]: 95 to 100%
pest or weed control at 70 g/ha [1, 5]: 45 to 59%
pest or weed control at 140 g/ha [1, 5]: 60 to 74%
pest or weed control at 70 g/ha [1, 6]: 85 to 94%
pest or weed control at 140 g/ha [1, 6]: 95 to 100%
pest or weed control at 70 g/ha [1, 7]: 95 to 100%
pest or weed control at 140 g/ha [1, 7]: 95 to 100%
pest or weed control at 70 g/ha [1, 8]: 85 to 94%
pest or weed control at 140 g/ha [1, 8]: 95 to 100%
pest or weed control at 70 g/ha [1, 9]: 0 to 29%
pest or weed control at 140 g/ha [1, 9]: 0 to 29%
pest or weed control at 70 g/ha [2, 10]: 85 to 94%
pest or weed control at 140 g/ha [2, 10]: 85 to 94%
pest or weed control at 70 g/ha [2, 11]: 30 to 44%
pest or weed control at 140 g/ha [2, 11]: 30 to 44%
pest or weed control at 70 g/ha [2, 12]: 95 to 100%
pest or weed control at 140 g/ha [2, 12]: 95 to 100%
pest or weed control at 70 g/ha [2, 13]: 0 to 29%
pest or weed control at 140 g/ha [2, 13]: 0 to 29%
pest or weed control at 70 g/ha [2, 14]: 45 to 59%
pest or weed control at 140 g/ha [2, 14]: 75 to 84%
pest or weed control at 70 g/ha [2, 15]: 75 to 84%
pest or weed control at 140 g/ha [2, 15]: 85 to 94%
pest or weed control at 70 g/ha [2, 16]: 30 to 44%
pest or weed control at 140 g/ha [2, 16]: 30 to 44%
pest or weed control at 70 g/ha [2, 17]: 75 to 84%
pest or weed control at 140 g/ha [2, 17]: 75 to 84%
